Assay results: patent US20180353512A1, “COMBINATION THERAPIES FOR TREATING B-CELL MALIGNANCIES” (GILEAD SCIENCES, INC., priority 2015, published 2018)

Assays:
Granta-519 cells = assay: ATPLite anti-proliferation assay (GI) and synergy score, 120 h; type: cell-based
Protocol: (§1) The endpoint readout of the anti-proliferation assay was based upon quantitation of ATP as an indicator of viable cells. Cells were thawed from a liquid nitrogen preserved state. Once cells had been expanded and divided at their expected doubling times, screening began. Cells were seeded in growth media in black 384-well tissue culture treated plates at 500 cells per well (except where noted in Analyzer). Cells were equilibrated in assay plates via centrifugation and placed in incubators attached to the Dosing Modules at 37° C. for twenty-four hours before treatment. […] These Tzero (T0) plates were read using ultra-sensitive luminescence on Envision Plate Readers. Treated assay plates were incubated with the compound for one hundred twenty hours. After one hundred twenty hours, plates were developed for endpoint analysis using ATPLite. All data points were collected via automated processes; quality controlled; and analyzed using Horizon CombinatoRx proprietary software. Assay plates were accepted if they pass the following quality control standards: relative luciferase values were consistent throughout the entire experiment, Z-factor scores were greater than 0.6, untreated/vehicle controls behaved consistently on the plate.
(§2) Horizon Discovery utilized Growth Inhibition (GI) as a measure of cell viability. The cell viability of vehicle was measured at the time of dosing (T0) and after one hundred twenty hours (T120). A GI reading of 0% represented no growth inhibition—cells treated with compound and T120 vehicle signals were matched. […] A GI 200% represents complete death of all cells in the culture well. Compounds reaching an activity plateau of GI 200% were considered cytotoxic. Horizon CombinatoRx calculates GI by applying the following test and equation: […]
(§3) To measure combination effects in excess of Loewe additivity, Horizon Discovery has devised a scalar measure to characterize the strength of synergistic interaction termed the Synergy Score. The Synergy Score was calculated as:
(§4) Synergy Score=log fx log fyΣmax(0,Idata)(Idata−ILoewe)
(§5) The fractional inhibition for each component agent and combination point in the matrix was calculated relative to the median of all vehicle-treated control wells. The Synergy Score equation integrated the experimentally-observed activity volume at each point in the matrix in excess of a model surface numerically derived from the activity of the component agents using the Loewe model for additivity. Additional terms in the Synergy Score equation (above) were used to normalize for various dilution factors used for individual agents and to allow for comparison of synergy scores across an entire experiment. The inclusion of positive inhibition gating or an Idata multiplier removed noise near the zero effect level, and biased results for synergistic interactions at that occur at high activity levels.
(§6) The cell viability of vehicle was measured at the time of dosing (T0) and after 120 h (T120). […] To measure combination effects, excess of Loewe additivity was used to characterize the strength of synergistic interaction, termed the synergy score. The assay and synergy score analysis were performed in accordance with the protocol set forth in Example 1B above.

Jeko-1 cells = assay: as above; type: cell-based
Protocol: as §1, §2, §3, §4, §5, §6

JVM-13 cells = assay: as above; type: cell-based
Protocol: as §1, §2, §3, §4, §5, §6

PF-1 cells = assay: as above; type: cell-based
Protocol: as §1, §2, §3, §4, §5, §6

Maver-1 cells = assay: as above; type: cell-based
Protocol: as §1, §2, §3, §4, §5, §6

JMP-1 cells = assay: as above; type: cell-based
Protocol: as §1, §2, §3, §4, §5, §6

Rec-1 cells = assay: as above; type: cell-based
Protocol: as §1, §2, §3, §4, §5, §6

Mino cells = assay: as above; type: cell-based
Protocol: as §1, §2, §3, §4, §5, §6

Z-138 cells = assay: as above; type: cell-based
Protocol: as §1, §2, §3, §4, §5, §6

PF-2 cells = assay: as above; type: cell-based
Protocol: as §1, §2, §3, §4, §5, §6

JVM-2 cells = assay: as above; type: cell-based
Protocol: as §1, §2, §3, §4, §5, §6

pERK T202/Y204 = assay: Western Blot of TMD-8 Ibrutinib resistant lines; type: cell-based; conditions: idelalisib 420 nM, Compound B 320 nM
Protocol: Western Blot samples were prepared by lysing 10^6 cells for 30 minutes in 150 μL ice-cold lysis buffer. Protease Inhibitor Cocktail (Roche Diagnostics Corp), and phosphatase inhibitor sets 1 and 2 (EMD Millipore) were also added to the lysis buffer (Cell Signaling Technology). Cells were centrifuged at 12.5 g for 10 minutes at 4° C.; supernatant was collected and transferred to new tube. Sample buffer was added to each lysate, and then boiled at 99° C. for 5 minutes. Protein was loaded into an SDS-PAGE gel and run for 2 h at 125V. After electrophoresis, gel was transferred to Immobilon-F membrane using the X Cell Blot. The membrane was then blocked for 1 h at room temperature in blocking buffer and incubated overnight with primary antibodies diluted in a blocking buffer. The following day, the membranes were washed 3× (5 min each) with TBST; secondary antibodies were added and membrane was incubated for 45 minutes at room temperature, followed by 3×TBST (5 min each). Blots were read using Licor Imager. Primary antibodies included p-AKT (S473), p-BTK (Y223), BTK, p-ERK (T202/Y204), ERK, and actin (Cell Signaling Technologies), and secondary antibodies included IRDye-conjugated anti-mouse and anti-rabbit antibodies; LI-COR. Band intensity was measured using LI-COR imager and LI-COR Odyssey software.
Total protein expression levels and phosphorylation of PI3K, MAPK, BTK and NF-κB components were determined by Western Blot or Peggy Sue. Cells were treated with idelalisib (420 nM), Compound B (320 nM) or in combination. Protein expression level and phosphoproteomics were determined using Western Blot (p-ERK 1/2, p-AKT S473, total AKT) and Peggy Sue (p-BTK, p-IκBα S32, total IκBα), using procedures as described in Example 3B. Results were quantitated after determining the AUC for each group and normalized to DMSO vehicle control.

Carnaval cells = assay: ATPLite anti-proliferation assay (GI) and synergy score, 120 h; type: cell-based
Protocol: as §1, §2, §3, §4, §5, §6
(§7) The assay and synergy score analysis were performed in accordance with the protocol set forth in Example 3A above.

Pfeiffer cells = assay: as above; type: cell-based
Protocol: as §1, §2, §3, §4, §5, §6, §7

U2932 cells = assay: as above; type: cell-based
Protocol: as §1, §2, §3, §4, §5, §6, §7

SU-DHL-6 cells = assay: as above; type: cell-based
Protocol: as §1, §2, §3, §4, §5, §6, §7

HBL-1 cells = assay: as above; type: cell-based
Protocol: as §1, §2, §3, §4, §5, §6, §7

TMD-8 cells = assay: as above; type: cell-based
Protocol: as §1, §2, §3, §4, §5, §6, §7

[1] = tested on: A20 mutant (TNFAIP3 Q143*) TMD-8 cells; assay: 96-hour Cell Titer Glo viability assay, Ibrutinib-resistant TMD-8; conditions: for EC50: Homo sapiens, TMD8, read-out: EC50, cell viability; for sensitivity in cell viability assay: TMD8^A20-Q143*, 96 h
[2] = A20-Q143* line, normalized to DMSO control, DMSO 0.91
[3] = control line, normalized to DMSO vehicle control

SMILES	Max. Effect (% GI) (Granta-519 cells)	Max. Effect (% GI) (Jeko-1 cells)	Max. Effect (% GI) (JVM-13 cells)	Max. Effect (% GI) (PF-1 cells)	Max. Effect (% GI) (Maver-1 cells)	Max. Effect (% GI) (JMP-1 cells)	Max. Effect (% GI) (Rec-1 cells)	Max. Effect (% GI) (Mino cells)	Max. Effect (% GI) (Z-138 cells)	Max. Effect (% GI) (PF-2 cells)	Max. Effect (% GI) (JVM-2 cells)	pERK T202/Y204 (pERK T202/Y204; [2])	pERK T202/Y204 (pERK T202/Y204; [3])	Max. Effect (% GI) (Carnaval cells)	Max. Effect (% GI) (Pfeiffer cells)	Max. Effect (% GI) (U2932 cells)	Max. Effect (% GI) (SU-DHL-6 cells)	Max. Effect (% GI) (HBL-1 cells)	Max. Effect (% GI) (TMD-8 cells)	EC50 [1]	further results
CC#CC(=O)N1CC[C@@H](n2c(=O)n(-c3ccc(Oc4ccccc4)cc3)c3c(N)ncnc32)C1 [Compound B, 6-amino-9-[(3R)-1-(2-butynoyl)-3-pyrrolidinyl]-7-(4-phenoxyphenyl)-7,9-dihydro-8H-purin-8-one]	22 % GI	37 % GI	15 % GI	9 % GI	45 % GI	14 % GI	111 % GI	35 % GI	11 % GI	25 % GI	91 % GI	0.76	0.35	0 % GI	8 % GI	81 % GI	24 % GI	65 % GI	98 % GI	> 10 µM	sensitivity in cell viability assay [1]: resistant
CCC(Nc1ncnc2[nH]cnc12)c1nc2cccc(F)c2c(=O)n1-c1ccccc1 (stereo not drawn) [Idelalisib, 2-(1-((9H-Purin-6-yl)amino)propyl)-5-fluoro-3-phenylquinazolin-4(3H)-one]	72 % GI	73 % GI	92 % GI	29 % GI	48 % GI	69 % GI	163 % GI	34 % GI	11 % GI	113 % GI	146 % GI	0.73	0.13	62 % GI	33 % GI	61 % GI	110 % GI	29 % GI	155 % GI	≥ 4.3 µM	sensitivity in cell viability assay [1]: resistant
